# According to patent publication US7915402B2, “Antioxidant inflammation modulators: oleanolic acid derivatives with saturation in the C-ring” (Reata Pharmaceuticals, Inc., priority 2008, dated 2011):
# Where two headings read alike, the source gives them in different places.
# Legend:
# NQO1 = test: Nrf2 target gene induction, NQO1; type: cell-based, human; conditions: MDA-MB-435 cells, 250 nM; fold induction above DMSO control
# [1] = CNS and lung tissue concentrations after oral dosing in rats; type: in vivo; conditions: both sexes, Sprague Dawley, rat, SD rats, oral gavage, day 15, 3 h post-dose
# Procedure: To examine tissue concentrations following oral dosing, 5 male and 5 female Sprague Dawley (SD) rats were administered 404-02 at 1, 10, 50 or 150 mg/kg/day via oral gavage. Doses were prepared in sesame oil and individualized to body weight on the day of dosing. Animals were sacrificed 3 hours post-dose on day 15 of study following harvest of brain and lung specimens. Each sample collected was rinsed in 1× isotonic phosphate buffered saline and blotted dry before weighing. Tissue slices were transferred to cryovials and stored at −80° C. until processing and LC-MS/MS analysis. Standard curves were derived for 404-02 in these tissues.
structure (smiles),measurement,setting,value
"CC1(C)CC[C@]2(C(=O)NCC(F)(F)F)CC[C@]3(C)[C@H](C(=O)C[C@@H]4[C@@]5(C)C=C(C#N)C(=O)C(C)(C)[C@@H]5CC[C@]43C)[C@@H]2C1 [Compound 63102, (4aS,6aR,6bR,8aR,12aR,12bR,14aR,14bS)-11-cyano-2,2,6a,6b,9,9,12a-heptamethyl-10,14-dioxo-N-(2,2,2-trifluoroethyl)-1,2,3,4,4a,5,6,6a,6b,7,8,8a,9,10,12a,12b,13,14,14a,14b-icosahydropicene-4a-carboxamide]",NQO1 induction,NQO1,2 fold
same,concentration at 3 h,"[1]; brain (CNS tissue), 1 mg/kg/day, read-out: Mean 404-02 CNS Tissue Concentration (nM) ± SEM",51 ± 11.8 nM
same,concentration at 3 h,"[1]; brain (CNS tissue), 1 mg/kg/day, read-out: Mean 404-02 CNS Tissue Content (ng/g = ng/mL) ± SEM",29 ± 6.8 ng/g
same,concentration at 3 h,"[1]; brain (CNS tissue), 10 mg/kg/day, read-out: Mean 404-02 CNS Tissue Concentration (nM) ± SEM",733 ± 173 nM
same,concentration at 3 h,"[1]; brain (CNS tissue), 10 mg/kg/day, read-out: Mean 404-02 CNS Tissue Content (ng/g = ng/mL) ± SEM",421 ± 99 ng/g
same,concentration at 3 h,"[1]; brain (CNS tissue), 50 mg/kg/day, read-out: Mean 404-02 CNS Tissue Concentration (nM) ± SEM",1310 ± 188 nM
same,concentration at 3 h,"[1]; brain (CNS tissue), 50 mg/kg/day, read-out: Mean 404-02 CNS Tissue Content (ng/g = ng/mL) ± SEM",750 ± 108 ng/g
same,concentration at 3 h,"[1]; brain (CNS tissue), 150 mg/kg/day, read-out: Mean 404-02 CNS Tissue Concentration (nM) ± SEM",1110 ± 143 nM
same,concentration at 3 h,"[1]; brain (CNS tissue), 150 mg/kg/day, read-out: Mean 404-02 CNS Tissue Content (ng/g = ng/mL) ± SEM",640 ± 82 ng/g
same,concentration at 3 h,"[1]; lung, 1 mg/kg/day, read-out: Mean dh404 Lung Tissue Concentration (nM) ± SEM",972 ± 215 nM
same,concentration at 3 h,"[1]; lung, 1 mg/kg/day, read-out: Mean dh404 Lung Tissue Content (ng/g = ng/mL) ± SEM",558 ± 123 ng/g
same,concentration at 3 h,"[1]; lung, 10 mg/kg/day, read-out: Mean dh404 Lung Tissue Concentration (nM) ± SEM",7020 ± 1620 nM
same,concentration at 3 h,"[1]; lung, 10 mg/kg/day, read-out: Mean dh404 Lung Tissue Content (ng/g = ng/mL) ± SEM",4030 ± 928 ng/g
same,concentration at 3 h,"[1]; lung, 50 mg/kg/day, read-out: Mean dh404 Lung Tissue Concentration (nM) ± SEM",12500 ± 2130 nM
same,concentration at 3 h,"[1]; lung, 50 mg/kg/day, read-out: Mean dh404 Lung Tissue Content (ng/g = ng/mL) ± SEM",7160 ± 1220 ng/g
same,concentration at 3 h,"[1]; lung, 150 mg/kg/day, read-out: Mean dh404 Lung Tissue Concentration (nM) ± SEM",16900 ± 2860 nM
same,concentration at 3 h,"[1]; lung, 150 mg/kg/day, read-out: Mean dh404 Lung Tissue Content (ng/g = ng/mL) ± SEM",9720 ± 1640 ng/g
